Measurements reported in US20080009418A1, “Selective Inhibitors” (Alchemia LTD., priority 2004, published 2008).

Columns and labels:
Human δ-opioid (DOP) = target: T1, Human δ-opioid (DOP) (Homo sapiens, UniProt P41143); assay: Radioligand binding, human δ-opioid (DOP) membranes, FlashPlate, [3H]-Bremazocine; settings: compound at 10 μM, [3H]-Bremazocine; for A1: inhibition of radioligand binding: FlashPlate
T1 construct: purchased Perkin Elmer Biosignal
Summary of the method: (§1)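 Cloned human receptor membranes were coated onto FlashPlate wells and incubated with radioligand and compound (added from a 0.5 mM DMSO daughter plate) for 1 hour at room temperature in the dark. Scintillation counting gave percent inhibition, with DMSO defining total and reference ligand defining non-specific binding.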

Human κ-Opioid (KOP) = target: T2, Human κ-Opioid (KOP) (Homo sapiens, UniProt P41145); assay: Radioligand binding, human κ-opioid (KOP) membranes, filtration, [3H]-Diprenorphine; settings: compound at 10 μM, [3H]-Diprenorphine; for A2: inhibition of radioligand binding: filtration
T2 construct: purchased Perkin Elmer Biosignal
Summary of the method: (§2)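 Membranes from cloned human receptors were incubated with compound and radioligand for 1 hour at room temperature. Bound ligand was collected on 0.3% PEI-soaked filters, washed with cold 50 mM Tris-HCl pH 7.4, and counted by scintillation. Percent inhibition was computed against DMSO totals and reference-ligand nonspecific wells.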

Human Melanocortin (MC3) = target: T3, Human Melanocortin (MC3) (Homo sapiens, UniProt P41968); assay: Radioligand binding, human melanocortin MC3 membranes, FlashPlate, [125I]-NDP-αMSH; settings: compound at 10 μM, [125I]-NDP-αMSH; for A3: inhibition of radioligand binding: FlashPlate
T3 construct: purchased Perkin Elmer Biosignal
Summary of the method: as §1

Human Melanocortin (MC4) = target: T4, Human Melanocortin (MC4) (Homo sapiens, UniProt P32245); assay: Radioligand binding, human melanocortin MC4 membranes, FlashPlate, [125I]-NDP-αMSH; settings: compound at 10 μM, [125I]-NDP-αMSH; for A4: inhibition of radioligand binding: FlashPlate
T4 construct: purchased Perkin Elmer Biosignal
Summary of the method: as §1

Human melanocortin (MC5) = target: T5, Human melanocortin (MC5) (Homo sapiens, UniProt P33032); assay: Radioligand binding, human melanocortin MC5 membranes, FlashPlate, [125I]-NDP-αMSH; settings: compound at 10 μM, [125I]-NDP-αMSH; for A5: inhibition of radioligand binding: FlashPlate
T5 construct: purchased Perkin Elmer Biosignal
Summary of the method: as §1

[1] = target: T6, Human melanin-concentrating hormone (MCH1) (Homo sapiens, UniProt Q99705); assay: Radioligand binding, human melanin-concentrating hormone MCH1 membranes, FlashPlate, [125I]-S36057; settings: compound at 10 μM; for A6 radioligand binding, percentage inhibition: [125I]-S36057; for A6: inhibition of radioligand binding: [125I]-S36057, FlashPlate
T6 construct: purchased Perkin Elmer Biosignal
Summary of the method: as §1

Human μ-opioid (MOP) = target: T7, Human μ-opioid (MOP) (Homo sapiens, UniProt P35372); assay: Radioligand binding, human μ-opioid (MOP) membranes, FlashPlate, [3H]-Naloxone; settings: compound at 10 μM, [3H]-Naloxone; for A7: inhibition of radioligand binding: FlashPlate
T7 construct: purchased Perkin Elmer Biosignal
Summary of the method: as §1

Human neurokinin (NK1) = target: T8, Human neurokinin (NK1) (Homo sapiens, UniProt P25103); assay: Radioligand binding, human neurokinin NK1 membranes, filtration, [125I]-Substance P; settings: compound at 10 μM, [125I]-Substance P; for A8: inhibition of radioligand binding: filtration
T8 construct: purchased Perkin Elmer Biosignal
Summary of the method: as §2

[2] = target: T9, Human neuropeptide Y (NPY-Y1) (Homo sapiens, UniProt P25929); assay: Radioligand binding, human neuropeptide Y NPY-Y1 membranes, FlashPlate, [125I]-PYY; settings: compound at 10 μM, [125I]-PYY; for A9: inhibition of radioligand binding: FlashPlate
T9 construct: purchased Perkin Elmer Biosignal
T9 sequence (P25929 1-384): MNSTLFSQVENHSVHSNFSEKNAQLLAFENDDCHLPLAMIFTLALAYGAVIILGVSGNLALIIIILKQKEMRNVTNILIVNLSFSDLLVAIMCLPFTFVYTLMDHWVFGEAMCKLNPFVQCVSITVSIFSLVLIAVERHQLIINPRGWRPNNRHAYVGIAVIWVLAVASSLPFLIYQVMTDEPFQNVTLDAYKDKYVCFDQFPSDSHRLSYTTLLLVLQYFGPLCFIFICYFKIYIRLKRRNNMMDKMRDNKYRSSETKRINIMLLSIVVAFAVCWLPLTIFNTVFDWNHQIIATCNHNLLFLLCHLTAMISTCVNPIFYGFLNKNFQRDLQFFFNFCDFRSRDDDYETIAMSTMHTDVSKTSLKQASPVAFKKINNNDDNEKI
Summary of the method: as §1

Human opioid (ORL1) = target: T10, Human opioid (ORL1) (Homo sapiens, UniProt P41146); assay: Radioligand binding, human opioid ORL1 membranes, FlashPlate, [125I]-Nociceptin; settings: compound at 10 μM, [125I]-Nociceptin; for A10: inhibition of radioligand binding: FlashPlate
T10 construct: purchased Perkin Elmer Biosignal
Summary of the method: as §1

Mouse urotensin (mUR2) = target: T11, Mouse urotensin (mUR2) (Mus musculus, UniProt Q8VIH9); assay: Radioligand binding, mouse urotensin mUR2 membranes, FlashPlate, [125I]-Urotensin II; settings: compound at 10 μM, [125I]-Urotensin II; for A11: inhibition of radioligand binding: FlashPlate
T11 construct: purchased Perkin Elmer Biosignal
T11 sequence (Q8VIH9 1-385): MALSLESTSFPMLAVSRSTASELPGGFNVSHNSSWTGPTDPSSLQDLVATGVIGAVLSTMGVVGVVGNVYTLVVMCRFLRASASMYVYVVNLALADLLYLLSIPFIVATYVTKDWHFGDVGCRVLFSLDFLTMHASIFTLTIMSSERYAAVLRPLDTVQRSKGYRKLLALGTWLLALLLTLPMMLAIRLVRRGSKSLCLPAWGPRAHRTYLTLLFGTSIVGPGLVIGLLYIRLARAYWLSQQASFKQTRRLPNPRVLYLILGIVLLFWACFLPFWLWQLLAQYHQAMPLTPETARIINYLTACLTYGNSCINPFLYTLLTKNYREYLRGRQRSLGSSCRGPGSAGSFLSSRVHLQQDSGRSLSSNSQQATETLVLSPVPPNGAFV
Summary of the method: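 Cloned mouse urotensin (mUR2) receptor membranes from Perkin Elmer Biosignal were immobilized in FlashPlate microplates using a proprietary coating. Each well got 19.5 μl buffer, then 0.5 μl of DMSO, reference ligand, or compound. Adding 5 μl of [125I]-Urotensin II, diluted to 5× final concentration in binding buffer, started binding. Plates were sealed with TopSeal-A and incubated 1 hour at room temperature in the dark. Wells were counted for 30 seconds each on a TopCount after a 60-second delay, and percentage inhibition was calculated.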

T4 sequence (P32245 whole entry): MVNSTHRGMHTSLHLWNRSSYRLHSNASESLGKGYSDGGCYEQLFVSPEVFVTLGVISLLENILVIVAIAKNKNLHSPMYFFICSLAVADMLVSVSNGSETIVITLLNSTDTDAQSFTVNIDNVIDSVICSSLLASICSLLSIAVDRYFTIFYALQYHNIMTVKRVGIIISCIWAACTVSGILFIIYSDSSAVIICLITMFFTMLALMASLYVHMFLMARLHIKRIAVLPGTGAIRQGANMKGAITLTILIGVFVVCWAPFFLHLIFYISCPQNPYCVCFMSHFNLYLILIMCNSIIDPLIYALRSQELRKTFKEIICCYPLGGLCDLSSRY
T7 sequence (P35372 whole entry): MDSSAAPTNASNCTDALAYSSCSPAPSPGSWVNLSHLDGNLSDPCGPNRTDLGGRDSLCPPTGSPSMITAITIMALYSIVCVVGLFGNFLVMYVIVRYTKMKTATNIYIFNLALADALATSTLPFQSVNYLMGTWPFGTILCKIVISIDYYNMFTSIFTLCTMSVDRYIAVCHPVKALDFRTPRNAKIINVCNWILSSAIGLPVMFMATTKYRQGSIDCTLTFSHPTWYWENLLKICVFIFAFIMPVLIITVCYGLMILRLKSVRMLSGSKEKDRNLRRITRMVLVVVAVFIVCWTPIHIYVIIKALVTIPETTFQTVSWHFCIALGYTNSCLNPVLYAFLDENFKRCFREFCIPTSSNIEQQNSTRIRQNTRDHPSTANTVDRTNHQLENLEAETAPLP
T1 sequence (P41143 whole entry): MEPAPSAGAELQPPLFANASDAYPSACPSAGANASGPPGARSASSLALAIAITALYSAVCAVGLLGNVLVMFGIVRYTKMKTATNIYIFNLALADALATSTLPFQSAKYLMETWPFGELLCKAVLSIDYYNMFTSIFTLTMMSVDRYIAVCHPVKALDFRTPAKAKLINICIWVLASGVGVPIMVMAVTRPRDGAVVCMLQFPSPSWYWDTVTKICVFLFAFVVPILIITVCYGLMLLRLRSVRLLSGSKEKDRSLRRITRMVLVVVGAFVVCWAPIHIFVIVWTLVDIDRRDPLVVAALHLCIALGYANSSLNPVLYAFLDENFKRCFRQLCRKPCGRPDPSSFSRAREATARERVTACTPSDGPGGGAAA
T10 sequence (P41146 whole entry): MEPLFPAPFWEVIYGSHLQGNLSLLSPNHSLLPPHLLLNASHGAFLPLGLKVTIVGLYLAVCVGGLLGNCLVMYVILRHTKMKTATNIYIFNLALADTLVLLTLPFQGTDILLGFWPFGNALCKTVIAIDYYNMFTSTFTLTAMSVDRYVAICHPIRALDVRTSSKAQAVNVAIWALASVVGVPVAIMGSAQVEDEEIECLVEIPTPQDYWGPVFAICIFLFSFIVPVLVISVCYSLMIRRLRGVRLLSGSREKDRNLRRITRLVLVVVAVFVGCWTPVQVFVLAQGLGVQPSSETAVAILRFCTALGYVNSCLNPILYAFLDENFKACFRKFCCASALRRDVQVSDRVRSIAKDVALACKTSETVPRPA
T8 sequence (P25103 whole entry): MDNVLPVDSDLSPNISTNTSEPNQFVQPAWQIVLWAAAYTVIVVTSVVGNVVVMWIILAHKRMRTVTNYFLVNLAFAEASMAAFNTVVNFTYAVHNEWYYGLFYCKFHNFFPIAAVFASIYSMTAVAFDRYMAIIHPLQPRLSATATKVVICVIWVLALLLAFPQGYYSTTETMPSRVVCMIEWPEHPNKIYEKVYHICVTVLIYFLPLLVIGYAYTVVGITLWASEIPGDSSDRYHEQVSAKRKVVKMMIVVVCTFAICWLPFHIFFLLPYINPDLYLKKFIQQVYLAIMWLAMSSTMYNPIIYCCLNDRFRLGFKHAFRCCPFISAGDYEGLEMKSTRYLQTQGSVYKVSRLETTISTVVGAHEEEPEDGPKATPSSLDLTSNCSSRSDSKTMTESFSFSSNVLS
T6 sequence (Q99705 whole entry): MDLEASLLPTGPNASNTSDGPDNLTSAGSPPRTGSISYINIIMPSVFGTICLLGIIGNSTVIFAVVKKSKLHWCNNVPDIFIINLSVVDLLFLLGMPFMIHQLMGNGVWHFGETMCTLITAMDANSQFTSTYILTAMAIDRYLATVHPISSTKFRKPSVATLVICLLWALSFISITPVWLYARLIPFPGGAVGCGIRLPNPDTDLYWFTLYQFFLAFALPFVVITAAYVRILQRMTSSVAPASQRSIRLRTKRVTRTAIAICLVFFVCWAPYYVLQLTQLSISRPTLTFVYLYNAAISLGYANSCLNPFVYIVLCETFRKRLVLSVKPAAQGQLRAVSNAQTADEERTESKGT
T2 sequence (P41145 whole entry): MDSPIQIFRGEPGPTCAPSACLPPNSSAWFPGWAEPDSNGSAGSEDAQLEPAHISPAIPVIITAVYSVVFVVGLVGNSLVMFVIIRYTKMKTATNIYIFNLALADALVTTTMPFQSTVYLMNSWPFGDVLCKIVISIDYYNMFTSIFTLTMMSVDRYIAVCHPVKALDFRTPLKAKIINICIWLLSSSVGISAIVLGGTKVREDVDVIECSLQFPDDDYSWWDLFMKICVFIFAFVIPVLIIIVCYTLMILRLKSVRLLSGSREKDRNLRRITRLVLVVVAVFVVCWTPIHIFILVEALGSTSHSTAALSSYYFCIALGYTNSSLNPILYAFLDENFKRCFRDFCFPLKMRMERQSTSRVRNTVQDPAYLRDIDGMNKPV
T5 sequence (P33032 whole entry): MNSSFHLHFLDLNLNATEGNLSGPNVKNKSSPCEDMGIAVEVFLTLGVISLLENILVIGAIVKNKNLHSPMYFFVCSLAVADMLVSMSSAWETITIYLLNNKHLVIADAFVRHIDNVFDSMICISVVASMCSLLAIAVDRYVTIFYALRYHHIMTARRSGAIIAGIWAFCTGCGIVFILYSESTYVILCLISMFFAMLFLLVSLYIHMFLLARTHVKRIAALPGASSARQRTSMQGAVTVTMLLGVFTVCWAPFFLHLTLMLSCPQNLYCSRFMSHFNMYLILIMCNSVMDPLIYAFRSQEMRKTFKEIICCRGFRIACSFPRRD
T3 sequence (P41968 whole entry): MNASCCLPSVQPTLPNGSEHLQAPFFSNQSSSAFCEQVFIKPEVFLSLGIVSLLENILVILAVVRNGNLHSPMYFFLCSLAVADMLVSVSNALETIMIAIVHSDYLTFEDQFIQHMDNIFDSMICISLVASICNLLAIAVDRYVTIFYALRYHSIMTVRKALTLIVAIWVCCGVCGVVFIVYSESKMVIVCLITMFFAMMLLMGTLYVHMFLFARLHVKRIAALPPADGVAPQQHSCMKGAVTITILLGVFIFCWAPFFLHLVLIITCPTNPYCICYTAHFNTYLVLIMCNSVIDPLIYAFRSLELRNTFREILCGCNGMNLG

Compound | A1 radioligand binding, percentage inhibition (Human δ-opioid (DOP)) | A2 radioligand binding, percentage inhibition (Human κ-Opioid (KOP)) | A3 radioligand binding, percentage inhibition (Human Melanocortin (MC3)) | A4 radioligand binding, percentage inhibition (Human Melanocortin (MC4)) | A5 radioligand binding, percentage inhibition (Human melanocortin (MC5)) | A6 radioligand binding, percentage inhibition [1] | A7 radioligand binding, percentage inhibition (Human μ-opioid (MOP)) | A8 radioligand binding, percentage inhibition (Human neurokinin (NK1)) | A9 radioligand binding, percentage inhibition [2] | A10 radioligand binding, percentage inhibition (Human opioid (ORL1)) | A11 radioligand binding, percentage inhibition (Mouse urotensin (mUR2)) | A1: inhibition of radioligand binding (Human δ-opioid (DOP)) | A2: inhibition of radioligand binding (Human κ-Opioid (KOP)) | A3: inhibition of radioligand binding (Human Melanocortin (MC3)) | A4: inhibition of radioligand binding (Human Melanocortin (MC4)) | A5: inhibition of radioligand binding (Human melanocortin (MC5)) | A6: inhibition of radioligand binding [1] | A7: inhibition of radioligand binding (Human μ-opioid (MOP)) | A8: inhibition of radioligand binding (Human neurokinin (NK1)) | A9: inhibition of radioligand binding [2] | also measured
COC[C@H]1OC(OCc2cccc(O)c2)[C@H](NC(=O)CCNC(=N)N)[C@@H](OCc2ccc(Cl)cc2)[C@@H]1O (stereo partly shown) [compound 145] | − (“−” indicates less than 50% inhibition at 10 μM) | − (“−” indicates less than 50% inhibition at 10 μM) | − (“−” indicates less than 50% inhibition at 10 μM) | − (“−” indicates less than 50% inhibition at 10 μM) | − (“−” indicates less than 50% inhibition at 10 μM) | + (“+” indicates greater than 50% inhibition at 10 μM) | − (“−” indicates less than 50% inhibition at 10 μM) | − (“−” indicates less than 50% inhibition at 10 μM) | − (“−” indicates less than 50% inhibition at 10 μM) | − (“−” indicates less than 50% inhibition at 10 μM) | − (“−” indicates less than 50% inhibition at 10 μM) |  |  |  |  |  |  |  |  |  | 
COCC1OC(OCc2ccccc2)C(NC(=O)CNC(=N)N)C(OCc2ccc3ccccc3c2)C1O (stereo not shown) [compound 189] |  |  |  |  |  |  |  |  |  |  |  | − (“−” indicates less than 50% inhibition at 10 μM) | − (“−” indicates less than 50% inhibition at 10 μM) | + (“+” indicates greater than 50% inhibition at 10 μM) | + (“+” indicates greater than 50% inhibition at 10 μM) | + (“+” indicates greater than 50% inhibition at 10 μM) | + (“+” indicates greater than 50% inhibition at 10 μM) | − (“−” indicates less than 50% inhibition at 10 μM) | + (“+” indicates greater than 50% inhibition at 10 μM) | − (“−” indicates less than 50% inhibition at 10 μM) | A10: inhibition of radioligand binding (Human opioid (ORL1)): − (“−” indicates less than 50% inhibition at 10 μM); A11: inhibition of radioligand binding (Mouse urotensin (mUR2)): − (“−” indicates less than 50% inhibition at 10 μM)
CO[C@H]1[C@H](O)[C@@H](COCc2cccc(O)c2)OC(OCCc2ccccc2)[C@@H]1NC(=O)CCNC(=N)N (stereo partly shown) [compound 159] | − (“−” indicates less than 50% inhibition at 10 μM) | − (“−” indicates less than 50% inhibition at 10 μM) | − (“−” indicates less than 50% inhibition at 10 μM) | − (“−” indicates less than 50% inhibition at 10 μM) | − (“−” indicates less than 50% inhibition at 10 μM) | − (“−” indicates less than 50% inhibition at 10 μM) | − (“−” indicates less than 50% inhibition at 10 μM) | + (“+” indicates greater than 50% inhibition at 10 μM) | − (“−” indicates less than 50% inhibition at 10 μM) | − (“−” indicates less than 50% inhibition at 10 μM) | − (“−” indicates less than 50% inhibition at 10 μM) |  |  |  |  |  |  |  |  |  | 
CSC1O[C@H](COCc2ccc(-c3ccccc3)cc2)[C@@H](O)[C@@H](OCc2ccc(Cl)cc2)[C@H]1NC(=O)CCCNC(=N)N (stereo partly shown) [compound 279] |  |  |  |  |  |  |  |  |  |  |  | − (“−” indicates less than 50% inhibition at 10 μM) | − (“−” indicates less than 50% inhibition at 10 μM) | − (“−” indicates less than 50% inhibition at 10 μM) | − (“−” indicates less than 50% inhibition at 10 μM) | + (“+” indicates greater than 50% inhibition at 10 μM) | − (“−” indicates less than 50% inhibition at 10 μM) | − (“−” indicates less than 50% inhibition at 10 μM) | + (“+” indicates greater than 50% inhibition at 10 μM) | − (“−” indicates less than 50% inhibition at 10 μM) | A10: inhibition of radioligand binding (Human opioid (ORL1)): − (“−” indicates less than 50% inhibition at 10 μM); A11: inhibition of radioligand binding (Mouse urotensin (mUR2)): − (“−” indicates less than 50% inhibition at 10 μM)
COCC1OC(OCc2ccccc2)C(NC(=O)CCN)C(OCc2ccc(-c3ccccc3)cc2)C1O (stereo not shown) [compound 184] | − (“−” indicates less than 50% inhibition at 10 μM) | − (“−” indicates less than 50% inhibition at 10 μM) | − (“−” indicates less than 50% inhibition at 10 μM) | − (“−” indicates less than 50% inhibition at 10 μM) | + (“+” indicates greater than 50% inhibition at 10 μM) | − (“−” indicates less than 50% inhibition at 10 μM) | − (“−” indicates less than 50% inhibition at 10 μM) | + (“+” indicates greater than 50% inhibition at 10 μM) | − (“−” indicates less than 50% inhibition at 10 μM) | − (“−” indicates less than 50% inhibition at 10 μM) | − (“−” indicates less than 50% inhibition at 10 μM) |  |  |  |  |  |  |  |  |  | 
